What is called IC50 is the midpoint of a concentration-inhibition curve.

One assay deals with T1, FLT3 (Homo sapiens, UniProt P36888).
T1 sequence (P36888 with tags, fused parts or gaps INS600HVDFREYEYD): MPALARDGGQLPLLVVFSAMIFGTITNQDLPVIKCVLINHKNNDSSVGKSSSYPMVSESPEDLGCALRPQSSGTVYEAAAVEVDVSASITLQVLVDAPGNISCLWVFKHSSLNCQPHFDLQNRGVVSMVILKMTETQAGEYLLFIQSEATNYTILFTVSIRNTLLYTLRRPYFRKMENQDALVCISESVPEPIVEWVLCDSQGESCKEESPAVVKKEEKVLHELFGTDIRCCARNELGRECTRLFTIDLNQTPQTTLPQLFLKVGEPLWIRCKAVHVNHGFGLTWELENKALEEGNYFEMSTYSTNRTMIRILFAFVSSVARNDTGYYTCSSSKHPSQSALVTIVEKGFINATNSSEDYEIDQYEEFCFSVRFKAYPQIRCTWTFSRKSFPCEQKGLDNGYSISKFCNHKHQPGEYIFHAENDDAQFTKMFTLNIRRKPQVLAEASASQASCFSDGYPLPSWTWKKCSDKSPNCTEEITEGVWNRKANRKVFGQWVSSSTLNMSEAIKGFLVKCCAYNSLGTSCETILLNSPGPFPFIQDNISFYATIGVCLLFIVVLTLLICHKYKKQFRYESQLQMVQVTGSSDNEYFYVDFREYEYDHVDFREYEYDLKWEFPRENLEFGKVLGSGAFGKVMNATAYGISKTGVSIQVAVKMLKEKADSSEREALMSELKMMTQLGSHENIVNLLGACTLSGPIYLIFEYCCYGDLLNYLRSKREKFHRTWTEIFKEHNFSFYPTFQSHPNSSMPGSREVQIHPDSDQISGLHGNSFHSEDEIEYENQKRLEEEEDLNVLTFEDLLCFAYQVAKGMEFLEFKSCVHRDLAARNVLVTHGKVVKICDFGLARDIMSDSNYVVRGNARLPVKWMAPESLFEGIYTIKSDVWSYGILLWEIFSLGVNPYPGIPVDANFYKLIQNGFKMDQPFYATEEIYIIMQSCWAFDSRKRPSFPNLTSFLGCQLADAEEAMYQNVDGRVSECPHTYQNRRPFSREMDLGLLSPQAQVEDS
The assay is described as follows: Inhibitory activity against FLT3 autophosphorylation using ELISA method. The settings on record: MV4-11 cells, 1 hr with compound, read-out: IC50 of FLT3-phosphorylation. It counts as cell-based. How it is done: Pharmacological Test Example 1
Measurement of Inhibitory Activity Against FLT3 Autophosphorylation Using ELISA Method
Human leukemia cells MV4-11 (ATCC number: CRL-9591) were cultured in an IMDM medium containing 10% fetal calf serum (purchased from SIGMA) within a 5% carbon dioxide incubator until 50 to 90% confluent. The harvested cells were seeded into 96-wells, plates, containing an IMDM medium containing 0.1% fetal calf serum, in a 96-well multiscreen plate in an amount of 5.0×10^5 per well, a solution of the test compound in dimethyl sulfoxide was added to each well, and the cultivation was continued at 37° C. for one hr. The medium was removed, followed by washing with phosphate buffered saline. A lysis buffer (60 μl) (20 mM HEPES (pH 7.4), 150 mM NaCl, 0.2% Triton X-100, 10% glycerol, 5 mM sodium orthovanadylate, 5 mM disodium ethylenediaminetetraacetate, and 2 mM Na4P2O7) was then added thereto. The mixture was shaken at 4° C. for 2 hr to prepare a cell extracts.
Separately, phosphate buffered saline (50 μl, pH 7.4) containing 5 μg/ml of anti-phospho-tyrosine antibody (PY20; purchased from Transduction Laboratories) was added to a 96-well microplate for ELISA (Maxisorp; purchased from NUNC), followed by standing at 4° C. overnight to form a solid phase on the wells. After washing of the plate, 250 μl of a blocking solution was added, followed by standing at room temperature for 3 hr to perform blocking. After washing, the whole quantity of the cell extract was transferred to the wells, and the plate was then allowed to stand at 4° C. overnight. After washing, an anti-FLT3 antibody (Flt3/Flk2 (C-20), purchased from Santa Cruz Biotechnology) was allowed to react at room temperature for 2 hr, and, after washing, a peroxidase-labeled anti-rabbit Ig antibody (purchased from Amersham) was allowed to react at room temperature for one hr. After washing, a chromophoric substrate for peroxidase (purchased from Sumitomo Bakelite Co., Ltd.) was added thereto to initiate a reaction. After a suitable level of color development, a reaction termination solution was added to stop the reaction, and the absorbance at 450 nm was measured with a microplate reader. The FLT3-phosphorylation activity for each well was determined by presuming the absorbance without the addition of the medicament to be 100% FLT3-phosphorylation activity and the absorbance with the addition of a large excess of a positive control (Compound 1, 10 μM) to be 0% FLT3-phosphorylation activity. The concentration of the test compound was varied on several levels, the FLT3-phosphorylation inhibitory activity was determined for each case, and the concentration of the test compound necessary for inhibiting 50% of FLT3-phosphorylation (IC50) was calculated.
A general note: ELISA stands for enzyme-linked immunosorbent assay.

The next assay has as its system MV4-11. The assay is described as follows: Cell growth inhibitory test MV4-11 (WST-1). It counts as cell-based, human. The following applies: MV4-11 cells, 3 days culture. Summed up:
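MV4-11 leukemia cells (3×10^3/well, DMEM + 10% FCS) were cultured 3 days with compound in DMSO at 5% CO2. Growth read by WST-1 absorbance at 450 nm (ref 650 nm), normalized to untreated (100%) and cell-free (0%) wells; IC50 from multiple concentrations.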
In general terms: Formazan colour is commonly taken as a measure of viable cells.

In a further assay the test system is MOLM13. The assay is described as follows: Tumor growth inhibitory activities in nude mice xenograft model inoculated with human leukemia cells MOLM13. It counts as in vivo. The settings on record: Mus musculus, MOLM-13, po, read-out: TGIR (%) (measurement date); for inhibition in vivo at 50 mg/kg: 50 mg/kg orally once a day. How it is done: Pharmacological Test Example 5
Tumor Growth Inhibitory Activities in Nude Mice Xenograft Model Inoculated with Human Leukemia Cells
Human leukemia cells MOLM13 (subdivided from Hayashibara Biochemical Laboratories, Inc.) were subcutaneously transplanted into nude mice. […] The test compound suspended or dissolved in 0.5% methylcellulose was orally administered at a dose of 0.1 ml per 10 g body weight once a day for 9 days. For the control group, only vehicle was administered.
The tumor growth inhibition rate (TGIR) was calculated as follows:
The tumor growth inhibition rate (TGIR)=(1−TX/CX)×100
wherein CX represents the volume of tumor at day X for the control group when the tumor volume at the day of the start of the administration (day 1) was presumed to be 1; and TX represents the volume of tumor at day X for test compound administration groups.

Counter-ions that a name gives are not always drawn. Like-named read-outs stand apart in the source and are kept apart here. Bounds are passed on as bounds.

Consider `COc1cc2nccc(Oc3c(Cl)cc(NC(=O)NCCC(C)(C)C)cc3Cl)c2cc1OC` [Compound 6, 1-[3,5-Dichloro-4-(6,7-dimethoxy-quinolin--4-yloxy)-phenyl]-3-(3,3-dimethyl-butyl)-urea], for which the IC50 was found to be 109 nM on FLT3 and 8 nM with MV4-11 (Homo sapiens, MV4-11, 72 h).
Turning to `COc1cc2nccc(Oc3ccc(NC(=O)NCCC(C)(C)C)cc3)c2cc1OC` [Compound 1, 1-[4-(6,7-Dimethoxy-quinolin-4-yloxy)-phenyl]-3-(3,3-dimethyl-butyl)-urea hydrochloride], the IC50 at FLT3 was 2 nM; with MV4-11 (Homo sapiens, MV4-11, 72 h), less than 1 nM. Moreover, the inhibition in vivo at 50 mg/kg in the assay with MOLM13 (264 h, day 11) came out at 53.8%.
Regarding `COc1cc2c(Oc3ccc(NC(=O)NCCC(C)(C)C)c(F)c3)ccnc2cc1OCCN1CCCCC1` [Compound 43, 1-(3,3-Dimethyl-butyl)-3-{2-fluoro-4-[6-methoxy-7-(2-piperidin-1-yl-ethoxy)-quinolin-4-yloxy]-phenyl}-urea hydrochloride], the IC50 on FLT3 turned out to be 216 nM; with MV4-11 (Homo sapiens, MV4-11, 72 h) it was 12 nM. The inhibition in vivo at 50 mg/kg in the assay with MOLM13 (240 h, day 10) came to 98.1%.
Consider `COc1cc2c(Oc3ccc(NC(=O)NCCC(C)(C)C)c(F)c3)ccnc2cc1OCCN1CCOCC1` [Compound 41, 1-(3,3-Dimethyl-butyl)-3-{2-fluoro-4-[6-methoxy-7-(2-morpholin-4-yl-ethoxy)-quinolin-4-yloxy]-phenyl}-urea hydrochloride], for which the IC50 was 308 nM at FLT3 and 25 nM in the assay on MV4-11 (hydrochloride).
On to `COc1cc2nccc(Oc3ccc(NC(=O)NCCC(C)(C)C)cc3F)c2cc1OC` [Compound 10, 1-[4-(6,7-Dimethoxy-quinolin-4-yloxy)-3-fluoro-phenyl]-3-(3,3-dimethyl-butyl)-urea hydrochloride], for which the IC50 at FLT3 is less than 1 nM; in the assay with MV4-11 (Homo sapiens, MV4-11, 72 h), less than 1 nM. The inhibition in vivo at 50 mg/kg in the assay with MOLM13 (240 h, day 10) was 84.8%.
As for `COc1cc2c(Oc3ccc(NC(=O)NCCC(C)(C)C)cc3F)ccnc2cc1OCCN1CCCCC1` [Compound 44, 1-(3,3-Dimethyl-butyl)-3-{3-fluoro-4-[6-methoxy-7-(2-piperidin-1-yl-ethoxy)-quinolin-4-yloxy]-phenyl}-urea], the IC50 on FLT3 came out at 200 nM; with MV4-11 (Homo sapiens, MV4-11, 72 h) it was 2 nM. Besides, in the assay on MOLM13 (216 h, 12.5 mg/kg orally once a day, day 9), the inhibition in vivo at 12.5 mg/kg came to 99.6%. In the assay on MOLM13 (216 h, 25 mg/kg orally once a day, day 9), the inhibition in vivo at 25 mg/kg was determined as 99.8%.
For `COc1cc2nccc(Oc3ccc(NC(=O)NCCC(C)(C)C)cc3Cl)c2cc1OC` [Compound 8, 1-[3-Chloro-4-(6,7-dimethoxy-quinolin-4-yloxy)-phenyl]-3-(3,3-dimethyl-butyl)-urea], the IC50 on FLT3 was less than 1 nM; in the assay with MV4-11 (Homo sapiens, MV4-11, 72 h), 1 nM.

These data come from US20080207617A1, “Quinoline Derivatives and Quinazoline Derivatives Inhibiting Autophosphrylation of Flt3 and Medicinal Compositions Containing the Same” (KIRIN BEER KABUSHIKI KAISHA, priority 2002, published 2008).
